{
  "source": "patent US11000033B2",
  "about": "“Ketone or oxime compound, and herbicide” (NISSAN CHEMICAL CORPORATION, priority 2014, dated 2021)",
  "assay_type_in_all_cases": "in vivo",
  "key": {"[1]": {"tested_on": "wheat", "assay": "Test Example 5: effect on crop by foliage application, plastic box (symbol e)", "settings": "320 g/ha, 3 weeks after application", "outline": "(§1)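 In a plastic box 7 cm deep filled with sterilized diluvial soil, seeds of crops and weeds such as Digitaria ciliaris, Avena fatua and Amaranthus retroflexus are sown in spots and covered with about 1.5 cm of soil before greenhouse growth at 25–30° C.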"}, "[2]": {"tested_on": "corn", "assay": "Test Example 5: effect on crop by foliage application, plastic box (symbol c)", "settings": "320 g/ha, 3 weeks after application", "outline": "as §1"}, "[3]": {"tested_on": "beet", "assay": "Test Example 5: effect on crop by foliage application, plastic box (symbol f)", "settings": "320 g/ha, 3 weeks after application", "outline": "as §1"}, "[4]": {"tested_on": "soybean", "assay": "Test Example 5: effect on crop by foliage application, plastic box (symbol d)", "settings": "320 g/ha, 3 weeks after application", "outline": "as §1"}, "[5]": {"tested_on": "Scirpus juncoides", "assay": "Test Example 2: herbicidal activity, application during weed generation in submerged conditions (symbol B)", "settings": "Table 23; application herbicide amount 320 g/ha; grade 0-5 by criteria of Test Example 1", "outline": "(§2)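 Submerged alluvial soil (4 cm) sown with mixed seed; greenhouse 25–30° C. 1–2 leaf: diluted emulsion onto water surface, preset dose. Visual score, 3 wk.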"}, "[6]": {"tested_on": "Abutilon theophrasti", "assay": "Test Example 5: herbicidal effect by foliage application, plastic box (symbol M)", "settings": "320 g/ha, 3 weeks after application", "outline": "(§3)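 After sowing into sterilized diluvial soil and growing two weeks under glass at 25° C. to 30° C., seedlings receive a uniform foliar spray of diluted emulsion. Damage is judged visually three weeks on.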"}, "[7]": {"tested_on": "Cyperus difformis", "assay": "Test Example 3: herbicidal effect by foliage application, Wagner pot (symbol E)", "settings": "application herbicide amount 320 g/ha", "outline": "(§4)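 Steps: fill pot with alluvial soil; add water to 0.1–0.5 cm depth; sow weed and rice seed; grow 14 days at 25–30 °C; spray diluted emulsion over the leaves; rate effect after 3 weeks.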"}, "[8]": {"tested_on": "Echinochloa crus-galli var. crus-galli", "assay": "Test Example 3: herbicidal effect by foliage application, Wagner pot (symbol H)", "settings": "application herbicide amount 320 g/ha", "outline": "as §4"}, "[9]": {"tested_on": "Veronica persica", "assay": "Test Example 5: herbicidal effect by foliage application, plastic box (symbol R)", "settings": "320 g/ha, 3 weeks after application", "outline": "as §3"}, "[10]": {"tested_on": "Scirpus juncoides", "assay": "Test Example 1: herbicidal activity, application before weed generation in submerged conditions (symbol B)", "settings": "application herbicide amount 320 g/ha", "outline": "(§5)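 Ratings (5: ≥90%, near complete withering; 4: 70–<90%; 3: 40–<70%; 2: 20–<40%; 1: 5–<20%; 0: ≤5%) were assigned 3 weeks after the diluted emulsion was applied to the water surface of freshly sown, submerged pots.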"}, "[11]": {"tested_on": "Echinochloa crus-galli var. crus-galli", "assay": "Test Example 5: herbicidal effect by foliage application, plastic box (symbol H)", "settings": "320 g/ha, 3 weeks after application", "outline": "as §3"}, "[12]": {"tested_on": "Echinochloa oryzacola Vasing.", "assay": "Test Example 1: herbicidal activity, application before weed generation in submerged conditions (symbol A)", "settings": "application herbicide amount 320 g/ha", "outline": "as §5"}, "[13]": {"tested_on": "Leptochloa chinensis", "assay": "Test Example 3: herbicidal effect by foliage application, Wagner pot (symbol D)", "settings": "application herbicide amount 320 g/ha", "outline": "as §4"}, "[14]": {"tested_on": "Lolium multiflorum Lam.", "assay": "Test Example 5: herbicidal effect by foliage application, plastic box (symbol K)", "settings": "320 g/ha, 3 weeks after application", "outline": "as §3"}, "[15]": {"tested_on": "Alopecurus myosuroides", "assay": "Test Example 5: herbicidal effect by foliage application, plastic box (symbol J)", "settings": "320 g/ha, 3 weeks after application", "outline": "as §3"}, "[16]": {"tested_on": "Galium spurium", "assay": "Test Example 5: herbicidal effect by foliage application, plastic box (symbol Q)", "settings": "320 g/ha, 3 weeks after application", "outline": "as §3"}, "[17]": {"tested_on": "Monochoria vaginalis", "assay": "Test Example 2: herbicidal activity, application during weed generation in submerged conditions (symbol C)", "settings": "Table 23; application herbicide amount 320 g/ha; grade 0-5 by criteria of Test Example 1", "outline": "as §2"}, "[18]": {"tested_on": "directly sowed rice plant", "assay": "Test Example 3: effect on crop by foliage application, Wagner pot (symbol b)", "settings": "application herbicide amount 320 g/ha", "outline": "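Greenhouse culture at 25–30 °C of seeded rice, Cyperus difformis, Leptochloa chinensis and Echinochloa crus-galli var. crus-galli, in alluvial soil held under 0.1–0.5 cm of water in a Wagner pot.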"}, "[19]": {"tested_on": "rapeseed", "assay": "Test Example 5: effect on crop by foliage application, plastic box (symbol g)", "settings": "320 g/ha, 3 weeks after application", "outline": "as §1"}, "[20]": {"tested_on": "Monochoria vaginalis", "assay": "Test Example 1: herbicidal activity, application before weed generation in submerged conditions (symbol C)", "settings": "application herbicide amount 320 g/ha", "outline": "as §5"}, "[21]": {"tested_on": "Stellaria media", "assay": "Test Example 5: herbicidal effect by foliage application, plastic box (symbol P)", "settings": "320 g/ha, 3 weeks after application", "outline": "as §3"}, "[22]": {"tested_on": "rice plant", "assay": "Test Example 5: effect on crop by foliage application, plastic box (symbol b)", "settings": "320 g/ha, 3 weeks after application", "outline": "as §1"}, "[23]": {"tested_on": "transplanted rice plant", "assay": "Test Example 1: effect on crop, application before weed generation in submerged conditions (symbol a)", "settings": "application herbicide amount 320 g/ha", "outline": "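Alluvial soil pots flooded to 4 cm water, sown with Echinochloa oryzacola, Scirpus juncoides and Monochoria vaginalis, then transplanted with 2.5 leaf stage rice seedlings; pre-emergence application. Greenhouse 25° C. to 30° C.; scored 0–5 by herbicidal ratio 3 weeks after application.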"}, "[24]": {"tested_on": "Avena fatua", "assay": "Test Example 5: herbicidal effect by foliage application, plastic box (symbol I)", "settings": "320 g/ha, 3 weeks after application", "outline": "as §3"}, "[25]": {"tested_on": "Echinochloa oryzacola Vasing.", "assay": "Test Example 2: herbicidal activity, application during weed generation in submerged conditions (symbol A)", "settings": "Table 23; application herbicide amount 320 g/ha; grade 0-5 by criteria of Test Example 1", "outline": "as §2"}, "[26]": {"tested_on": "Chenopodium album", "assay": "Test Example 5: herbicidal effect by foliage application, plastic box (symbol O)", "settings": "320 g/ha, 3 weeks after application", "outline": "as §3"}, "[27]": {"tested_on": "Apera spica-venti", "assay": "Test Example 5: herbicidal effect by foliage application, plastic box (symbol L)", "settings": "320 g/ha, 3 weeks after application", "outline": "as §3"}, "[28]": {"tested_on": "Setaria viridis", "assay": "Test Example 5: herbicidal effect by foliage application, plastic box (symbol G)", "settings": "320 g/ha, 3 weeks after application", "outline": "as §3"}, "[29]": {"tested_on": "Digitaria ciliaris", "assay": "Test Example 5: herbicidal effect by foliage application, plastic box (symbol F)", "settings": "320 g/ha, 3 weeks after application", "outline": "as §3"}, "[30]": {"tested_on": "Amaranthus retroflexus", "assay": "Test Example 5: herbicidal effect by foliage application, plastic box (symbol N)", "settings": "320 g/ha, 3 weeks after application", "outline": "as §3"}},
  "data": [
    {"smiles": "CCCC=Cc1cc(C)c(C2=C(O)CC(CC(C)=NOC)C2=O)c(C)c1", "note": "(stereo not drawn) [6-071]", "values": [
      {"measurement": "e: wheat, effect on crop (criteria of Test Example 1)", "setting": "[1]", "result": "2 (Herbicidal ratio of 20% or higher and lower than 40%)"},
      {"measurement": "c: corn, effect on crop (criteria of Test Example 1)", "setting": "[2]", "result": "0 (Herbicidal ratio of 5% or lower (almost no effect))"},
      {"measurement": "f: beet, effect on crop (criteria of Test Example 1)", "setting": "[3]", "result": "0 (Herbicidal ratio of 5% or lower (almost no effect))"},
      {"measurement": "d: soybean, effect on crop (criteria of Test Example 1)", "setting": "[4]", "result": "0 (Herbicidal ratio of 5% or lower (almost no effect))"},
      {"measurement": "Herbicidal effect grade, B: Scirpus juncoides", "setting": "[5]", "result": "0 (Herbicidal ratio of 5% or lower (almost no effect))"},
      {"measurement": "M: Abutilon theophrasti, herbicidal effect (criteria of Test Example 1)", "setting": "[6]", "result": "0 (Herbicidal ratio of 5% or lower (almost no effect))"},
      {"measurement": "herbicidal effect on E, grade 0-5", "setting": "[7]", "result": "0 (Herbicidal ratio of 5% or lower (almost no effect))"},
      {"measurement": "herbicidal effect on H (Echinochloa crus-galli var. crus-galli), grade 0-5", "setting": "[8]", "result": "4 (Herbicidal ratio of 70% or higher and lower than 90%)"},
      {"measurement": "R: Veronica persica, herbicidal effect (criteria of Test Example 1)", "setting": "[9]", "result": "0 (Herbicidal ratio of 5% or lower (almost no effect))"},
      {"measurement": "Herbicidal effect grade, B: Scirpus juncoides", "setting": "[10]", "result": "0 (Herbicidal ratio of 5% or lower (almost no effect))"},
      {"measurement": "H: Echinochloa crus-galli var. crus-galli, herbicidal effect (criteria of Test Example 1)", "setting": "[11]", "result": "0 (Herbicidal ratio of 5% or lower (almost no effect))"},
      {"measurement": "Herbicidal effect grade, A: Echinochloa oryzacola Vasing.", "setting": "[12]", "result": "4 (Herbicidal ratio of 70% or higher and lower than 90%)"},
      {"measurement": "herbicidal effect on D (Leptochloa chinensis), grade 0-5", "setting": "[13]", "result": "5 (Herbicidal ratio of 90% or more (almost completely withered))"},
      {"measurement": "K: Lolium multiflorum Lam., herbicidal effect (criteria of Test Example 1)", "setting": "[14]", "result": "4 (Herbicidal ratio of 70% or higher and lower than 90%)"},
      {"measurement": "J: Alopecurus myosuroides, herbicidal effect (criteria of Test Example 1)", "setting": "[15]", "result": "3 (Herbicidal ratio of 40% or higher and lower than 70%)"},
      {"measurement": "Q: Galium spurium, herbicidal effect (criteria of Test Example 1)", "setting": "[16]", "result": "0 (Herbicidal ratio of 5% or lower (almost no effect))"},
      {"measurement": "Herbicidal effect grade, C: Monochoria vaginalis", "setting": "[17]", "result": "0 (Herbicidal ratio of 5% or lower (almost no effect))"},
      {"measurement": "effect on crop b (directly sowed rice plant), grade 0-5", "setting": "[18]", "result": "1 (Herbicidal ratio of 5% or higher and lower than 20%)"},
      {"measurement": "g: rapeseed, effect on crop (criteria of Test Example 1)", "setting": "[19]", "result": "0 (Herbicidal ratio of 5% or lower (almost no effect))"},
      {"measurement": "Herbicidal effect grade, C: Monochoria vaginalis", "setting": "[20]", "result": "0 (Herbicidal ratio of 5% or lower (almost no effect))"},
      {"measurement": "P: Stellaria media, herbicidal effect (criteria of Test Example 1)", "setting": "[21]", "result": "0 (Herbicidal ratio of 5% or lower (almost no effect))"},
      {"measurement": "b: directly sowed rice plant, effect on crop (criteria of Test Example 1)", "setting": "[22]", "result": "1 (Herbicidal ratio of 5% or higher and lower than 20%)"},
      {"measurement": "Effect grade on crop, a: transplanted rice plant", "setting": "[23]", "result": "0 (Herbicidal ratio of 5% or lower (almost no effect))"},
      {"measurement": "I: Avena fatua, herbicidal effect (criteria of Test Example 1)", "setting": "[24]", "result": "0 (Herbicidal ratio of 5% or lower (almost no effect))"},
      {"measurement": "Herbicidal effect grade, A: Echinochloa oryzacola Vasing.", "setting": "[25]", "result": "2 (Herbicidal ratio of 20% or higher and lower than 40%)"},
      {"measurement": "O: Chenopodium album, herbicidal effect (criteria of Test Example 1)", "setting": "[26]", "result": "0 (Herbicidal ratio of 5% or lower (almost no effect))"},
      {"measurement": "L: Apera spica-venti, herbicidal effect (criteria of Test Example 1)", "setting": "[27]", "result": "2 (Herbicidal ratio of 20% or higher and lower than 40%)"},
      {"measurement": "G: Setaria viridis, herbicidal effect (criteria of Test Example 1)", "setting": "[28]", "result": "0 (Herbicidal ratio of 5% or lower (almost no effect))"},
      {"measurement": "F: Digitaria ciliaris, herbicidal effect (criteria of Test Example 1)", "setting": "[29]", "result": "0 (Herbicidal ratio of 5% or lower (almost no effect))"},
      {"measurement": "N: Amaranthus retroflexus, herbicidal effect (criteria of Test Example 1)", "setting": "[30]", "result": "0 (Herbicidal ratio of 5% or lower (almost no effect))"}
    ]}
  ]
}
